From patent US10494366B2, “Pesticidally active amide heterocyclic derivatives with sulphur containing substituents” (Syngenta Participations AG, priority 2014, dated 2019)

Assays:
Assay type in all cases: in vivo
[1] = tested on: Plutella xylostella (diamond back moth); experiment: Example B3: Plutella xylostella, treated artificial diet; conditions: 120 h, application rate 200 ppm, L2 larvae, 5 days after infestation, read-out: effect in at least one of the two categories (mortality or growth inhibition)
Description: (§1) 24-well microtiter plates with artificial diet were treated with aqueous test solutions prepared from 10,000 ppm DMSO stock solutions by pipetting. After drying, the plates were infested with L2 larvae (10 to 15 per well). The samples were assessed for mortality and growth inhibition in comparison to untreated samples 5 days after infestation.

[2] = tested on: Spodoptera littoralis (Egyptian cotton leaf worm); experiment: Example B1: Spodoptera littoralis, sprayed cotton leaf discs; conditions: foliar, 72 h, application rate 200 ppm, L1 larvae, 3 days after infestation, read-out: control in at least one of the three categories (mortality, anti-feedancy or growth inhibition)
Description: Cotton leaf discs were placed on agar in 24-well microtiter plates and sprayed with aqueous test solutions prepared from 10,000 ppm DMSO stock solutions. After drying the leaf discs were infested with five L1 larvae. The samples were assessed for mortality, anti-feedant effect, and growth inhibition in comparison to untreated samples 3 days after infestation. Control of Spodoptera littoralis by a test sample is when at least one of mortality, anti-feedant effect, and growth inhibition is higher than the untreated sample.

[3] = tested on: Diabrotica balteata (corn root worm); experiment: Example B4: Diabrotica balteata, sprayed maize sprouts; conditions: 96 h, application rate 200 ppm, L2 larvae, 4 days after infestation, read-out: effect in at least one of the two categories (mortality or growth inhibition)
Description: as §1, with “Maize sprouts, placed on an agar layer in 24-well” for “24-well”, “plates” for “plates with artificial diet”, “spraying.” for “pipetting.”, “(6” for “(10”, “10” for “15”, “4” for “5”

[4] = tested on: Euschistus heros (neotropical brown stink bug); experiment: Example B6: Euschistus heros, sprayed soybean leaf; conditions: 120 h, application rate 200 ppm, N-2 nymphs, 5 days after infestation
Text: Soybean leaf on agar in 24-well microtiter plates were sprayed with aqueous test solutions prepared from 10,000 ppm DMSO stock solutions. After drying the leaf were infested with N-2 nymphs.

| Compound | percent effect (mortality or growth inhibition) at 200 ppm [1] [%] | percent control (mortality, anti-feedant effect or growth inhibition) at 200 ppm [2] [%] | percent effect (mortality or growth inhibition) at 200 ppm [3] [%] | mortality at 200 ppm [4] [%] |
| --- | --- | --- | --- | --- |
| CCS(=O)(=O)c1ccc(-c2cnc(C(=O)/N=c3\sc(C(F)(F)F)nn3C)c(S(=O)(=O)CC)c2)cc1 [Compound P4] | ≥ 80 | ≥ 80 | ≥ 80 |  |
| CCS(=O)(=O)c1cc(-c2cccc(C(F)(F)F)c2)cnc1C(=O)/N=c1\sc(C(F)(F)F)nn1C [Compound P37] | ≥ 80 | ≥ 80 | ≥ 80 |  |
| CCS(=O)(=O)c1cc(-c2ccc(Cl)c(Cl)c2)cnc1C(=O)/N=c1\sc(C(F)(F)F)nn1C [Compound P36] | ≥ 80 | ≥ 80 | ≥ 80 |  |
| CCS(=O)(=O)c1cc(-c2ncc(C#N)cn2)cnc1C(=O)/N=c1\sc(C(F)(F)F)nn1C [Compound P68] | ≥ 80 |  | ≥ 80 | ≥ 80 |
| CCSc1cc(-c2ccc(Cl)cc2)cnc1C(=O)/N=c1\sc(C(F)(F)C(F)(F)F)nn1C [Compound P12] |  |  | ≥ 80 |  |
| CCS(=O)(=O)c1cc(-n2ccc(C(F)(F)F)n2)cnc1C(=O)/N=c1\sc(C(F)(F)F)nn1C [Compound P14] | ≥ 80 | ≥ 80 | ≥ 80 |  |
| CCS(=O)(=O)c1cc(-c2cc(Cl)c(F)c(Cl)c2)cnc1C(=O)/N=c1\sc(C(F)(F)F)nn1C [Compound P27] | ≥ 80 | ≥ 80 | ≥ 80 |  |
| CCS(=O)(=O)c1ccc(-c2ccc(C(F)(F)F)cc2)nc1C(=O)/N=c1\sc(C(F)(F)F)nn1C [Compound P21, (N)-3-ethylsulfonyl-N-[3-methyl-5-(trifluoromethyl)-1,3,4-thiadiazol-2-ylidene]-6-[4-(trifluoromethyl)phenyl]pyridine-2-carboxamide] |  | ≥ 80 |  |  |
| CCS(=O)(=O)c1cc(-c2ccc(SC)cc2)cnc1C(=O)/N=c1\sc(C(F)(F)F)nn1C [Compound P38] | ≥ 80 | ≥ 80 | ≥ 80 |  |
| CCSc1cc(-n2ccc(C(F)(F)F)n2)cnc1C(=O)/N=c1\sc(C(F)(F)F)nn1C [Compound P13] |  |  | ≥ 80 |  |
| CCS(=O)(=O)c1cc(-c2cc(F)cc(F)c2)cnc1C(=O)/N=c1\sc(C(F)(F)F)nn1C [Compound P35] | ≥ 80 | ≥ 80 | ≥ 80 |  |
| CCS(=O)(=O)c1cc(-c2cc(F)cc(F)c2)cnc1C(=O)/N=c1\sc(C(F)(F)C(F)(F)F)nn1C [Compound P67] | ≥ 80 |  | ≥ 80 | ≥ 80 |
| CCSc1cc(-c2ccc(C(F)(F)F)cc2)cnc1C(=O)N=c1ccc(SC(F)(F)F)cn1C [Compound P15] |  |  | ≥ 80 |  |
| CCS(=O)(=O)c1cc(-c2cc(Cl)cc(Cl)c2)cnc1C(=O)/N=c1\sc(C(F)(F)F)nn1C [Compound P24] |  | ≥ 80 |  |  |
| CCS(=O)(=O)c1cc(-c2ncc(C(F)(F)F)s2)cnc1C(=O)/N=c1\sc(C(F)(F)F)nn1C [Compound P58] |  | ≥ 80 | ≥ 80 |  |
| CCS(=O)(=O)c1cc(-c2cc(C#N)ccn2)cnc1C(=O)/N=c1\sc(C(F)(F)F)nn1C [Compound P62] | ≥ 80 | ≥ 80 |  | ≥ 80 |
